The values below come from ChEMBL document CHEMBL1629519, “2-Hydroxypropyl-β-cyclodextrin strongly improves water solubility and anti-proliferative activity of pyrazolo[3,4-d]pyrimidines Src-Abl dual inhibitors” (Eur J Med Chem, 2010).

In brackets after ≈: the same amount, converted by molar mass. Activity calls are given as the source filed them. No cut-off for these calls is given here.

Data set [1] in a line: Aqueous solubility of the compound in dimethyl sulfoxide. In kind it is physicochemical. Particulars: aqueous solution with dimethyl sulfoxide.
Data set [2] can be described thus: Solubility of the compound in 30 % hydroxypropyl-beta-cyclodextrins solution. The format is physicochemical. To be noted: 30% hydroxypropyl-beta-cyclodextrin solution.
A short description of data set [3]: Lipophilicity, log P of the compound. The format is physicochemical. To be noted: octanol/water.
Data set [4] can be described thus: Antiproliferative activity against human KU812 cells after 3 days by ATP lite 1 step assay. The format is functional, cell-based. Particulars: KU812, 72 h.
In the next data set the test system is K562. As to the kind of experiment: Antiproliferative activity against human K562 cells after 3 days by ATP lite 1 step assay. In kind it is functional, cell-based. Particulars: K562, 72 h.
The test system of a further data set is HL-60. In words: Anti proliferative activity against human HL60 assessed as cell viability at 12.5 to 25 uM after 48 hrs by MTT assay. The format is functional, cell-based. (Formazan colour is commonly taken as a measure of viable cells.)
The next data set has as its system SAOS-2. As to the kind of experiment: Anti proliferative activity against human Saos2 assessed as cell viability at 12.5 to 25 uM after 48 hrs by MTT assay. In kind it is functional, cell-based.

A word on the solubility: it is the dissolved amount per volume that the medium holds. The logP is the decadic logarithm of the partition coefficient of the neutral form, usually between octanol and water. A higher logP goes with a more lipophilic compound. `CSc1nc(NCCc2ccc(Cl)cc2)c2cnn(CC(Cl)c3ccccc3)c2n1` (configuration not stated): the results for the solubility in data set [1] and in data set [2] were 0.158 µM (≈ 0.0724 µg/mL) and 612 µM (≈ 281 µg/mL), respectively. In data set [3], this compound returned a logP of 7.41.
Regarding `CSc1nc(NCc2ccccc2)c2cnn(CC(Cl)c3ccccc3)c2n1` (configuration not stated), the values for the solubility in data set [1] and in data set [2] were 0.512 µM (≈ 0.21 µg/mL) and 838 µM (≈ 344 µg/mL), respectively. Also, the lipophilicity (logP) in data set [3] came to 5.49.
For `CCCSc1nc(NCc2cccc(Cl)c2)c2cnn(CC(Cl)c3ccccc3)c2n1` (configuration not stated) the same measures were 0.107 µM (≈ 0.0506 µg/mL), 910 µM (≈ 430 µg/mL) and 7.4.
For `CSc1nc(NCCc2cccc(F)c2)c2cnn(CC(Cl)c3ccccc3)c2n1` (configuration not stated), the solubility came out at 0.588 µM (≈ 0.26 µg/mL) in data set [1] and 790 µM (≈ 349 µg/mL) in data set [2]. In addition, in data set [3], the log partition coefficient (logP) was found to be 6.44.
A word on the IC50: it is the midpoint of a concentration-inhibition curve. A high value points to weaker potency in that assay. For the compound `CSc1nc(NCc2cccc(Cl)c2)c2cnn(CC(Cl)c3ccccc3)c2n1` (configuration not stated), the solubility came to 0.295 µM (≈ 0.131 µg/mL) in data set [1] and 314 µM (≈ 140 µg/mL) in data set [2]. Also, the half-maximal inhibitory concentration (IC50) turned out to be 24.1 µM in data set [4] and 7.19 µM in the data set on K562. In addition, the logP in data set [3] was 6.76.
As to `CSc1nc(NCc2cccc(Br)c2)c2cnn(CC(Cl)c3ccccc3)c2n1` (configuration not stated), the solubility in data set [1] was determined as 0.141 µM (≈ 0.0689 µg/mL); in data set [2] it was 390 µM (≈ 191 µg/mL). In data set [3], this compound returned a logP of 6.37.
Turning to `CC(O)COC[C@H]1O[C@@H]2O[C@H]3[C@H](O)[C@@H](O)[C@@H](O[C@H]4[C@H](O)[C@@H](O)[C@@H](O[C@H]5[C@H](O)[C@@H](O)[C@@H](O[C@H]6[C@H](O)[C@@H](O)[C@@H](O[C@H]7[C@H](O)[C@@H](O)[C@@H](O[C@H]8[C@H](O)[C@@H](O)[C@@H](O[C@H]1[C@H](O)[C@H]2O)O[C@@H]8COCC(C)O)O[C@@H]7COCC(C)O)O[C@@H]6COCC(C)O)O[C@@H]5COCC(C)O)O[C@@H]4COCC(C)O)O[C@@H]3COCC(C)O` (some centres not stated), the outcome in the data set with HL-60 and with SAOS-2 was inactive.
Take `CSc1nc(NCc2ccccc2F)c2cnn(CC(Cl)c3ccccc3)c2n1` (configuration not stated): the IC50 came to 7.87 µM in data set [4] and 6.11 µM with K562. The same compound had a logP in data set [3] of 5.88.
As for `CSc1nc(NCCc2ccccc2)c2cnn(CC(Cl)c3ccccc3)c2n1` (configuration not stated), the results for the solubility in data set [1] and in data set [2] were 0.166 µM (≈ 0.0704 µg/mL) and 947 µM (≈ 402 µg/mL), respectively.
